Assay results taken from the NIST ThermoML archive (doi:10.1016/j.jct.2005.03.016).

Conditions: Liquid, Vibrating tube method

CC1CCCCC1 [methylcyclohexane]
mass density [kg/m3]
Conditions	100 kPa	5000 kPa	10000 kPa	15000 kPa	20000 kPa	25000 kPa	30000 kPa	35000 kPa	40000 kPa	45000 kPa
283.15 K	777.6	781.4	785.2	788.7	792.1	795.3	798.5	801.5	804.4	807.3
293.15 K	769	773	777	780.7	784.3	787.8	791.1	794.2	797.3	800.2
303.15 K	760.4	764.7	768.9	772.8	776.6	780.2	783.7	787	790.2	793.3
313.15 K	751.7	756.2	760.7	764.8	768.8	772.7	776.3	779.8	783.1	786.4
323.15 K	742.9	747.7	752.5	756.9	761.1	765.1	769	772.6	776.1	779.5
333.15 K	733.9	739	744.1	748.8	753.3	757.5	761.5	765.4	769	772.5
343.15 K	724.8	730.4	735.8	740.8	745.6	750	754.2	758.2	762.1	765.7
353.15 K	715.7	721.7	727.4	732.8	737.8	742.5	747	751.2	755.2	759
